# Source: ChEMBL document CHEMBL4393668, “Discovery and Characterization of XY101, a Potent, Selective, and Orally Bioavailable RORγ Inverse Agonist for Treatment of Castration-Resistant Prostate Cancer” (J Med Chem, 2019)
# How the values were obtained:
# [1] = biological target: T1, Nuclear receptor ROR-gamma (Homo sapiens) (UniProt P51449)
# T1 sequence (whole entry): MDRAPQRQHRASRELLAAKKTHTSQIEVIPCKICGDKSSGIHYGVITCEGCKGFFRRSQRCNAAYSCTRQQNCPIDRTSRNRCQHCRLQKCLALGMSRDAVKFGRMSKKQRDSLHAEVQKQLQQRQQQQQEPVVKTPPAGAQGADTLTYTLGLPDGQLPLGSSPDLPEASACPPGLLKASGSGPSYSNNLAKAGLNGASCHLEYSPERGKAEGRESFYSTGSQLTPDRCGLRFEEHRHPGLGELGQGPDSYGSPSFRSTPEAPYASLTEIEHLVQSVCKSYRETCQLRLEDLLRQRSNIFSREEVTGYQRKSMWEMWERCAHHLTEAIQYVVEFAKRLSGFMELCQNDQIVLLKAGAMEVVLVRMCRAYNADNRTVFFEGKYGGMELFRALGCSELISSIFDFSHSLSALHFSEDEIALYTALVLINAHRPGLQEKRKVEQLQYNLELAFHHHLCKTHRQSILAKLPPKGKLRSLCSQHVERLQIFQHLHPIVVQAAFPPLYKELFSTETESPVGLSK
# [2] = biological target: T2, Nuclear receptor ROR-gamma (Homo sapiens, UniProt P51449); experiment: Inverse agonist activity at Gal4-fused RORgamma LBD (unknown origin) expressed in 293T cells measured after 24 hrs by dual-luciferase reporter gene assay; assay type: cell-based
# T2 sequence (P51449 whole entry): T1 sequence (whole entry)
# [3] = biological target: T3, Nuclear receptor ROR-beta (Homo sapiens, UniProt Q92753)
# T3 sequence (Q92753 whole entry): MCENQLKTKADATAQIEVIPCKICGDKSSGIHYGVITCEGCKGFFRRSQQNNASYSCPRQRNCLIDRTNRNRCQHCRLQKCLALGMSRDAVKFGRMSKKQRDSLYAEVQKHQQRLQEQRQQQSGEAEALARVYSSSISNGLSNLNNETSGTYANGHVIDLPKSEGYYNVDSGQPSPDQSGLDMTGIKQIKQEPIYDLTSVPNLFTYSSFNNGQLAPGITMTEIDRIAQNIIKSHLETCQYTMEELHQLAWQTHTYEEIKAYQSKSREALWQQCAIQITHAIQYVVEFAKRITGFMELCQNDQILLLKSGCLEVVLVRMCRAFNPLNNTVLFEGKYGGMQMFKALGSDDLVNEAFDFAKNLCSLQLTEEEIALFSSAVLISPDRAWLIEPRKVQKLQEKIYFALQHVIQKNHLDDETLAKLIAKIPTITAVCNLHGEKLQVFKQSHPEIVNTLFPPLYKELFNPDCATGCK
# [4] = biological target: T4, Oxysterols receptor LXR-alpha (Homo sapiens, UniProt Q13133)
# T4 sequence (Q13133 whole entry): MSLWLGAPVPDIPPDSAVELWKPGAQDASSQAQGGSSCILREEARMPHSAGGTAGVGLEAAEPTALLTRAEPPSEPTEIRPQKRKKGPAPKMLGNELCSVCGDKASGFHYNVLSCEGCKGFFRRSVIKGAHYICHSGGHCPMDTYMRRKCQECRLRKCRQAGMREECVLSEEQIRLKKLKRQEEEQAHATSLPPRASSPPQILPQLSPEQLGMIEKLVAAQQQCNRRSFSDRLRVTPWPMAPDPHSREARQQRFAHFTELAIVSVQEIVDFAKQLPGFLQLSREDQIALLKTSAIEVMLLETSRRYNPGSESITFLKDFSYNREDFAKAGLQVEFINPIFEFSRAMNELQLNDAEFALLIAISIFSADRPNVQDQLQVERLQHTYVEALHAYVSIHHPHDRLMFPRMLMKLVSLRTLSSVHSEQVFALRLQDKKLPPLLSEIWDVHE
# [5] = biological target: T5, Nuclear receptor ROR-alpha (Homo sapiens, UniProt P35398)
# T5 sequence (P35398 whole entry): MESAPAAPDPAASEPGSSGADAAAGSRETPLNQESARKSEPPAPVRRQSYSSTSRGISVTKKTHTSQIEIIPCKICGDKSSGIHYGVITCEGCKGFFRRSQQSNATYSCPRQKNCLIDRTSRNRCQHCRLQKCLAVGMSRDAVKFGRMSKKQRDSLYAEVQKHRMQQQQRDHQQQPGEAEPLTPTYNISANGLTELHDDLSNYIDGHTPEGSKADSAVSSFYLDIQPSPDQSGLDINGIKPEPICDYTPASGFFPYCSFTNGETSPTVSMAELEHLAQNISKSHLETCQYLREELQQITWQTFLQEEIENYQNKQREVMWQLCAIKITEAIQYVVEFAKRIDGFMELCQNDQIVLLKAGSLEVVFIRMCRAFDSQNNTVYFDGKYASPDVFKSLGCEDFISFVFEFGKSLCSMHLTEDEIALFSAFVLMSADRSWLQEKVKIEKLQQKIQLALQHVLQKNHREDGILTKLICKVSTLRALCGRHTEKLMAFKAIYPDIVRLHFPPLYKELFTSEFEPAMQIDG
# [6] = biological target: T6, Bile acid receptor (Homo sapiens) (UniProt Q96RI1); experiment: Inverse agonist activity at Gal4-fused FXR LBD (unknown origin) expressed in 293T cells measured after 24 hrs by dual-luciferase reporter gene assay relative to control; assay type: cell-based
# T6 sequence (whole entry): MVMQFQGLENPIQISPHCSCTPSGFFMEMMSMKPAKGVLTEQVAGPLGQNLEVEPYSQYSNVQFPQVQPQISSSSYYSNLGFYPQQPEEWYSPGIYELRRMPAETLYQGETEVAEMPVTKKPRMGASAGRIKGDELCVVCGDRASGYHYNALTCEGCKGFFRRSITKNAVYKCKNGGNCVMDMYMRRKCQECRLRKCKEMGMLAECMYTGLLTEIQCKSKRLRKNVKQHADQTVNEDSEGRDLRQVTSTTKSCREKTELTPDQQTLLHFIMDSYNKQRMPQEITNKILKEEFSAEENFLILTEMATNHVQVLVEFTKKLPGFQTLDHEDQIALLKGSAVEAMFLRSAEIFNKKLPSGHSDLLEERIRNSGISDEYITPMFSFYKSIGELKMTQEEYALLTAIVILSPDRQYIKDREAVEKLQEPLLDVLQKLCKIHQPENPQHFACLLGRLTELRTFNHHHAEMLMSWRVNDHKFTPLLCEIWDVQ
# [7] = biological target: T7, Bile acid receptor (Homo sapiens, UniProt Q96RI1)
# T7 sequence (Q96RI1 whole entry): T6 sequence (whole entry)
# [8] = biological target: T2, Nuclear receptor ROR-gamma; experiment: Inverse agonist activity at human N-terminal His6-tagged RORgamma (262 to 507 residues) expressed in Escherichia coli BL21 (DE3) assessed as inhibition of biotinylated co-activator SRC1-4 peptide recruitment by alphascreen assay
# [9] = biological target: T1, Nuclear receptor ROR-gamma (Homo sapiens); experiment: Inverse agonist activity at Gal4-fused RORgamma LBD (unknown origin) expressed in 293T cells measured after 24 hrs by dual-luciferase reporter gene assay relative to control; assay type: cell-based
# [10] = biological target: T7, Bile acid receptor; remark: listed apart in the source
# [11] = biological target: T5, Nuclear receptor ROR-alpha; remark: listed apart in the source
# [12] = in vitro; conditions: rat, liver microsomes
# Description: Stability in rat liver microsomes assessed as parent compound remaining at 10 uM measured after 60 mins by LC-MS/MS analysis
# [13] = in vivo; conditions: Sprague-Dawley, rat, iv, 2 mg/kg
# [14] = in vivo; conditions: Sprague-Dawley, rat, po, 10 mg/kg
# [15] = in vivo; conditions: Sprague-Dawley, rat, iv, 2 mg/kg; remark: listed apart in the source
# [16] = in vivo; conditions: Sprague-Dawley, rat, po, 10 mg/kg; remark: listed apart in the source
# [17] = in vivo; conditions: Sprague-Dawley, rat, po, 10 mg/kg; remark: listed apart in the source
# [18] = in vivo; conditions: Sprague-Dawley, rat, po, 10 mg/kg; remark: listed apart in the source
# [19] = rat, in vivo, iv, 2 mg/kg
# Description: Apparent volume of distribution in Sprague-Dawley rat at 2 mg/kg, iv
# [20] = in vivo; conditions: Sprague-Dawley, rat, iv, 2 mg/kg; remark: listed apart in the source
# Description: Half life in Sprague-Dawley rat at 2 mg/kg, iv
# [21] = in vivo; conditions: Sprague-Dawley, rat, iv, 2 mg/kg; remark: listed apart in the source
# [22] = in vivo; conditions: Sprague-Dawley, rat, po, 10 mg/kg; remark: listed apart in the source
# Description: Half life in Sprague-Dawley rat at 10 mg/kg, po
# [23] = in vivo; conditions: Sprague-Dawley, rat, po, 10 mg/kg; remark: listed apart in the source
# [24] = in vivo; conditions: Sprague-Dawley, rat, iv, 2 mg/kg; remark: listed apart in the source
ΔTm [1],IC50 [2],Structure (SMILES),further results
2 °C,2.96 µM,COC(=O)c1ccccc1CS(=O)(=O)Nc1ccc(-c2ccc(C(O)(C(F)(F)F)C(F)(F)F)cc2F)cc1,
5.8 °C,0.82 µM,CCCCCCC(=O)Nc1ccc(-c2ccc(C(O)(C(F)(F)F)C(F)(F)F)cc2F)cc1,IC50 [3]: Not Active; IC50 [4]: Not Active; IC50 [5]: 1.74 µM; %max [6]: 93%; IC50 [7]: 1.25 µM; IC50 [8]: 5.31 µM
8 °C,0.09 µM,COC(=O)c1ccc(CS(=O)(=O)Nc2ccc(-c3ccc(C(O)(C(F)(F)F)C(F)(F)F)cc3F)cc2)cc1,IC50 [10]: Not Active; IC50 [3]: Not Active; IC50 [4]: Not Active; IC50 [11]: Not Active; IC50 [8]: 4.83 µM
0 °C,8.05 µM,CNC(=O)c1ccc(CS(=O)(=O)Nc2ccc(-c3ccc(C(O)(C(F)(F)F)C(F)(F)F)cc3F)cc2)cc1,
1 °C,7.76 µM,CS(=O)(=O)c1ccc(CS(=O)(=O)Nc2ccc(-c3ccc(C(O)(C(F)(F)F)C(F)(F)F)cc3F)cc2)cc1,
1 °C,7.66 µM,O=[N+]([O-])c1ccccc1CS(=O)(=O)Nc1ccc(-c2ccc(C(O)(C(F)(F)F)C(F)(F)F)cc2F)cc1,
5.2 °C,1.98 µM,O=C(CCc1ccccc1)Nc1ccc(-c2ccc(C(O)(C(F)(F)F)C(F)(F)F)cc2F)cc1,
1.5 °C,2.22 µM,O=[N+]([O-])c1ccc(CS(=O)(=O)Nc2ccc(-c3ccc(C(O)(C(F)(F)F)C(F)(F)F)cc3F)cc2)cc1,

# The remaining lines, values behind:
Structure (SMILES),ΔTm [1],IC50 [2],further results
NC(=O)c1ccc(CS(=O)(=O)Nc2ccc(-c3ccc(C(O)(C(F)(F)F)C(F)(F)F)cc3F)cc2)cc1,0 °C,8.72 µM,
O=C(CCC(F)(F)F)Nc1ccc(-c2ccc(C(O)(C(F)(F)F)C(F)(F)F)cc2F)cc1,7.8 °C,3.08 µM,
N#Cc1ccc(CS(=O)(=O)Nc2ccc(-c3ccc(C(O)(C(F)(F)F)C(F)(F)F)cc3F)cc2)cc1,0 °C,7.55 µM,
COC(=O)c1cccc(CS(=O)(=O)Nc2ccc(-c3ccc(C(O)(C(F)(F)F)C(F)(F)F)cc3F)cc2)c1,4 °C,4.24 µM,
COC(=O)CCCC(=O)Nc1ccc(-c2ccc(C(O)(C(F)(F)F)C(F)(F)F)cc2F)cc1,5.4 °C,0.93 µM,
O=C(O)c1ccc(CS(=O)(=O)Nc2ccc(-c3ccc(C(O)(C(F)(F)F)C(F)(F)F)cc3F)cc2)cc1,0 °C,,Activity [9]: 23%
CC(=O)CCCC(=O)Nc1ccc(-c2ccc(C(O)(C(F)(F)F)C(F)(F)F)cc2F)cc1,5 °C,1.52 µM,
Nc1ccccc1CC(=O)Nc1ccc(-c2ccc(C(O)(C(F)(F)F)C(F)(F)F)cc2F)cc1,1.5 °C,,
O=C(Cc1ccccc1[N+](=O)[O-])Nc1ccc(-c2ccc(C(O)(C(F)(F)F)C(F)(F)F)cc2F)cc1,4.2 °C,,"remaining at 1 h, 10 µM [12]: 79%; AUC(0-t) [13]: 3.33 µg·h/mL; AUC(0-t) [14]: 3.22 µg·h/mL; IC50 [10]: Not Active; Cmax [15]: 0.839 µg/mL; Cmax [16]: 0.721 µg/mL; bioavailability [17]: 19%; Tmax [18]: 8 h; IC50 [3]: Not Active; Vz [19]: 3425 mg/kg; IC50 [4]: Not Active; half-life [20]: 7.67 h; AUC(0-inf) [21]: 6.44 µg·h/mL"
CS(=O)(=O)c1ccc(CC(=O)Nc2ccc(-c3ccc(C(O)(C(F)(F)F)C(F)(F)F)cc3F)cc2)cc1,7.8 °C,,"remaining at 1 h, 10 µM [12]: 78%; AUC(0-t) [13]: 7.66 µg·h/mL; half-life [22]: 8.67 h; AUC(0-t) [14]: 21.6 µg·h/mL; IC50 [10]: Not Active; Cmax [15]: 0.98 µg/mL; Cmax [16]: 1.43 µg/mL; bioavailability [17]: 52%; IC50 [3]: Not Active; Vz [19]: 3544 mg/kg; IC50 [4]: Not Active; half-life [20]: 12.7 h; IC50 [11]: Not Active; AUC(0-inf) [23]: 24.5 µg·h/mL; AUC(0-inf) [21]: 10.4 µg·h/mL; Tmax [24]: 4.8 min"
O=C(CCCC1CCCCC1)Nc1ccc(-c2ccc(C(O)(C(F)(F)F)C(F)(F)F)cc2F)cc1,6.5 °C,1.08 µM,
COC(=O)CCC(=O)Nc1ccc(-c2ccc(C(O)(C(F)(F)F)C(F)(F)F)cc2F)cc1,5.2 °C,0.46 µM,
CCCCC(=O)Nc1ccc(-c2ccc(C(O)(C(F)(F)F)C(F)(F)F)cc2F)cc1,6.3 °C,,
O=C(Cc1ccc([N+](=O)[O-])cc1)Nc1ccc(-c2ccc(C(O)(C(F)(F)F)C(F)(F)F)cc2F)cc1,6 °C,,
O=[N+]([O-])c1cccc(CS(=O)(=O)Nc2ccc(-c3ccc(C(O)(C(F)(F)F)C(F)(F)F)cc3F)cc2)c1,3.5 °C,1.49 µM,
CCCCCC(=O)Nc1ccc(-c2ccc(C(O)(C(F)(F)F)C(F)(F)F)cc2F)cc1,5.9 °C,1.83 µM,
Nc1ccc(CC(=O)Nc2ccc(-c3ccc(C(O)(C(F)(F)F)C(F)(F)F)cc3F)cc2)cc1,1.5 °C,,
